# In patent US9624239B2, “Protein kinase inhibitors” (Pharmascience Inc., priority 2011, dated 2017):
# Key:
# [1] = biological target: T1, histidine tagged recombinant human full-length Bruton Agammaglobulinemia Tyrosine Kinase (Btk) (Homo sapiens, UniProt Q06187); assay: Btk kinase inhibition assay (fluorescence polarization, KinEASE FP Fluorescein Green); format: biochemical; conditions: 10 μM ATP, 250 μM substrate, 60 minutes, room temperature; Ki from IC50 by Cheng-Prusoff; read-out: ki50 (nM), Inhibition of Btk
# T1 construct: recombinant human full-length Bruton Agammaglobulinemia Tyrosine Kinase (Btk); histidine tag
# Procedure: (§1) Kinase Binding Btk and Lck Kinase Inhibition Assay
# (§2) Fluorescence polarization-based kinase assays were performed in 384 well-plate format using histidine tagged recombinant human full-length Bruton Agammaglobulinemia Tyrosine Kinase (Btk) or histidine tagged recombinant Human Lymphocyte-Specific Protein Tyrosine Kinase (Lck) and a modified protocol of the KinEASE™ FP Fluorescein Green Assay supplied from Millipore. Kinase reaction were performed at room temperature for 60 minutes in presence of 250 μM substrate, 10 μM ATP and variable test article concentrations. The reaction was stopped with EDTA/kinease detection reagents and the polarization measured on a Tecan 500 instrument. From the dose-response curve obtained, the IC50 was calculated using Graph Pad Prisms® using a non-linear fit curve. The Km for ATP on each enzyme was experimentally determined and the Ki values calculated using the Cheng-Prusoff equation (see: Cheng Y, Prusoff W H. (1973) Relationship between the inhibition constant (K1) and the concentration of inhibitor which causes 50 percent inhibition (I50) of an enzymatic reaction”. Biochem Pharmacol 22 (23): 3099-108).
# (§3) ki values are reported in Tables 2 and 3: • a—Less than 100 nM; b—less than 1000 nM; c—more than 1000 nM
# [2] = tested on: mouse splenocytes; assay: Splenic cell proliferation assay (anti-IgM stimulated B cell proliferation, Cell Titer-Glo); format: cell-based; conditions: Splenocyte; CD1 mouse splenocytes, 1 h pre-treatment, 2.5 ug/ml anti-IgM F(ab')2 for 72 h; read-out: EC50 (nM), Inhibition of splenic cell proliferation
# Procedure: Splenic Cell Proliferation Assay
# Splenocytes were obtained from 6 week old male CD1 mice (Charles River Laboratories Inc.). Mouse spleens were manually disrupted in PBS and filtered using a 70 μm cell strainer followed by ammonium chloride red blood cell lysis. Cells were washed, resuspended in Splenocyte Medium (HyClone RPMI supplemented with 10% heat-inactivated FBS, 0.5× non-essential amino acids, 10 mM HEPES, 50 uM beta mercaptoethanol) and incubated at 37° C., 5% CO2 for 2 h to remove adherent cells. Suspension cells were seeded in 96 well plates at 50,000 cells per well and incubated at 37° C., 5% CO2 for 1 h. Splenocytes were pre-treated in triplicate with 10,000 nM curves of Formula 1 compounds for 1 h, followed by stimulation of B cell proliferation with 2.5 ug/ml anti-IgM F(ab′)2 (Jackson ImmunoResearch) for 72 h. Cell proliferation was measured by Cell Titer-Glo Luminescent Assay (Promega). EC50 values (50% proliferation in the presence of compound as compared to vehicle treated controls) were calculated from dose response compound curves using GraphPad Prism Software.
# EC50 values are reported in Table 4: • a—Less than 100 nM; b—less than 1000 nM; c—more than 1000 nM
# [3] = biological target: T2, histidine tagged recombinant Human Lymphocyte-Specific Protein Tyrosine Kinase (Lck) (Homo sapiens, UniProt P06239); assay: Lck kinase inhibition assay (fluorescence polarization, KinEASE FP Fluorescein Green); format: biochemical; conditions: 10 μM ATP, 250 μM substrate, 60 minutes, room temperature; Ki from IC50 by Cheng-Prusoff
# T2 construct: histidine tag
# Procedure: as §1, §2, §3
# T1 sequence (Q06187 whole entry): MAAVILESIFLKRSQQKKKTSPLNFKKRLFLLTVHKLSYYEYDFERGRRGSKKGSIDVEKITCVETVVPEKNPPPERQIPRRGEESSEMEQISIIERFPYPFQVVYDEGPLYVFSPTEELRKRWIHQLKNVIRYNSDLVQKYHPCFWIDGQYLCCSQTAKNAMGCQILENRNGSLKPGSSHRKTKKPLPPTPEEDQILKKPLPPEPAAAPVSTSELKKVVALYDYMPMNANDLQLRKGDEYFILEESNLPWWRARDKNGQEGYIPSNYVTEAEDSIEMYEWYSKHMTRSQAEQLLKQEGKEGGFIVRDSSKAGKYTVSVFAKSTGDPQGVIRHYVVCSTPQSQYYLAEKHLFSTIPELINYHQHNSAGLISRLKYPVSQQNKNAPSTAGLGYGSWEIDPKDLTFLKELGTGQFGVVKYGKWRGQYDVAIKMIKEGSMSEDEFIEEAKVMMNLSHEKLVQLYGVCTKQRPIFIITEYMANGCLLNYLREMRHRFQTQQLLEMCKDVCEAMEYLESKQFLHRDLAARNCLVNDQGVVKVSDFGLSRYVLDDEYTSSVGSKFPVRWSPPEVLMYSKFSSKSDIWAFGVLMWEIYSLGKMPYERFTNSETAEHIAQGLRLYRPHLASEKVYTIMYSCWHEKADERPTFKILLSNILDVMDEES
# T2 sequence (P06239 whole entry): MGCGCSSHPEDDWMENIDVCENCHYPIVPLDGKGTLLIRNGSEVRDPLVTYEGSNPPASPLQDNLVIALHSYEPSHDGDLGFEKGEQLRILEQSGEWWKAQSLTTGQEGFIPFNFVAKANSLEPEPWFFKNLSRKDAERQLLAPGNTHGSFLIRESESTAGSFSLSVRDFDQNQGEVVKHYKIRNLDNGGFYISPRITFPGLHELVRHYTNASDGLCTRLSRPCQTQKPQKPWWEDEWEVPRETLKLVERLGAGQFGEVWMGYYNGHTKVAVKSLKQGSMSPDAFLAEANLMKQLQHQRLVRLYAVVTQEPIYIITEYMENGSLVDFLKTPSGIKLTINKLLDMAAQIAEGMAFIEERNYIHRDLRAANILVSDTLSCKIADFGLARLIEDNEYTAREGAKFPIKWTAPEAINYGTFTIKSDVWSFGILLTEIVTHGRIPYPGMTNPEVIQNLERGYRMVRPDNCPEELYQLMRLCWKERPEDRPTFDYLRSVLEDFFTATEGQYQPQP
SMILES,Ki [1] [nM],Ki [3] [nM],EC50 [2] [nM]
Nc1ncnc2c3c(n(-c4ccc(Oc5ccccc5)cc4)c12)CCC3 [Compound 1],< 1000,< 100,> 1000
Nc1ncnc2c3c(n(-c4ccc(Oc5ccc(F)cc5)cc4)c12)CCC3 [Compound 2],> 1000,> 1000,> 1000
Nc1ncnc2c3c(n(-c4ccc(Oc5ccc(Br)cc5)cc4)c12)CCC3 [Compound 3],< 1000,< 1000,> 1000
Nc1ncnc2c3c(n(-c4ccc(Oc5ccc(Cl)cc5)cc4)c12)CCC3 [Compound 4],< 1000,< 1000,> 1000
Nc1ncnc2c3c(n(-c4ccc(Oc5ccccc5)cc4)c12)CNC3 [Compound 7],> 1000,< 1000,> 1000
Nc1ncnc2c3c(n(-c4ccc(Oc5ccccc5)cc4)c12)CCNC3 [Compound 8],> 1000,< 1000,
Nc1ncnc2c3c(n(-c4ccc(Oc5ccccc5)cc4)c12)CN(S(=O)(=O)c1ccccc1)C3 [Compound 9],> 1000,< 1000,
Nc1ncnc2c3c(n(-c4ccc(Oc5ccccc5)cc4)c12)CCCC3 [Compound 13],< 1000,< 1000,> 1000
CCN1Cc2c(n(-c3ccc(Oc4ccccc4)cc3)c3c(N)ncnc23)C1 [Compound 14],> 1000,< 1000,> 1000
CCN1CCc2c(c3ncnc(N)c3n2-c2ccc(Oc3ccccc3)cc2)C1 [Compound 15],> 1000,< 100,
Nc1ncnc2c3c(n(-c4ccc(Oc5ccccc5)cc4)c12)CN(C(=O)c1ccccc1)C3 [Compound 18],> 1000,< 1000,
Nc1ncnc2c3c(n(-c4ccc(Cc5ccccc5)cc4)c12)CCC3 [Compound 22],> 1000,< 100,
COc1ccc(C(=O)Nc2cccc(Oc3ccc(-n4c5c(c6ncnc(N)c64)C(C)OC5)cc3)c2)cc1 (stereo not shown) [Compound 110],< 1000,,> 1000
CC(C)C(=O)Nc1cccc(Oc2ccc(-n3c4c(c5ncnc(N)c53)C(C)OC4)cc2)c1 (stereo not shown) [Compound 111],< 1000,,> 1000
CCCC(=O)Nc1cccc(Oc2ccc(-n3c4c(c5ncnc(N)c53)C(C)OC4)cc2)c1 (stereo not shown) [Compound 126],< 1000,,100 to 1000
CCCCOc1cccc(Oc2ccc(-n3c4c(c5ncnc(N)c53)C(C)OC4)cc2)c1 (stereo not shown) [Compound 136],< 100,,100 to 1000
COc1cccc(OCc2cccc(Oc3ccc(-n4c5c(c6ncnc(N)c64)C(C)OC5)cc3)c2)c1 (stereo not shown) [Compound 137],< 100,,100 to 1000
CC1OCc2c1c1ncnc(N)c1n2-c1ccc(Oc2cccc(OCC3CC3)c2)cc1 (stereo not shown) [Compound 138],< 100,,100 to 1000
CC1OCc2c1c1ncnc(N)c1n2-c1ccc(Oc2cccc(OCc3cccc(OCCN(C)C)c3)c2)cc1 (stereo not shown) [Compound 139],< 100,,100 to 1000
CC1OCc2c1c1ncnc(N)c1n2-c1ccc(Oc2cccc(OCC3CCCC3)c2)cc1 (stereo not shown) [Compound 140],< 1000,,100 to 1000
CC(=O)Nc1ccccc1OCc1cccc(Oc2ccc(-n3c4c(c5ncnc(N)c53)C(C)OC4)cc2)c1 (stereo not shown) [Compound 141],< 1000,,100 to 1000
N#Cc1ccccc1OCc1cccc(Oc2ccc(-n3c4c(c5ncnc(N)c53)COC4)cc2)c1 [Compound 142],< 100,,100 to 1000
N#Cc1ccccc1COc1cccc(Oc2ccc(-n3c4c(c5ncnc(N)c53)COC4)cc2)c1 [Compound 143],< 100,,100 to 1000
N#Cc1ccccc1OCc1cccc(Oc2ccc(-n3c4c(c5ncnc(N)c53)CCC4)cc2)c1 [Compound 144],< 100,,100 to 1000

# The next lines start with results.
Ki [1] [nM],Ki [3] [nM],SMILES,EC50 [2] [nM]
< 100,,CC1OCc2c1c1ncnc(N)c1n2-c1ccc(Oc2cccc(OCc3cccc(C(F)(F)F)c3)c2)cc1 (stereo not shown) [Compound 105],100 to 1000
< 100,,CC(=O)Nc1cccc(COc2cccc(Oc3ccc(-n4c5c(c6ncnc(N)c64)C(C)OC5)cc3)c2)c1 (stereo not shown) [Compound 106],100 to 1000
< 100,,CC1OCc2c1c1ncnc(N)c1n2-c1ccc(Oc2cccc(OCc3ccccc3Cl)c2)cc1 (stereo not shown) [Compound 107],< 100
< 100,,COc1ccccc1COc1cccc(Oc2ccc(-n3c4c(c5ncnc(N)c53)C(C)OC4)cc2)c1 (stereo not shown) [Compound 108],100 to 1000
< 100,,CC1OCc2c1c1ncnc(N)c1n2-c1ccc(Oc2cccc(NC(=O)c3ccc(F)cc3)c2)cc1 (stereo not shown) [Compound 112],100 to 1000
< 100,,CC1OCc2c1c1ncnc(N)c1n2-c1ccc(Oc2cccc(OCc3cccc([N+](=O)[O-])c3)c2)cc1 (stereo not shown) [Compound 113],100 to 1000
< 100,,CC(C)CC(=O)Nc1cccc(Oc2ccc(-n3c4c(c5ncnc(N)c53)C(C)OC4)cc2)c1 (stereo not shown) [Compound 114],100 to 1000
< 100,,CC1OCc2c1c1ncnc(N)c1n2-c1ccc(Oc2cccc(CCOc3ccccc3)c2)cc1 (stereo not shown) [Compound 115],100 to 1000
< 100,,CC1OCc2c1c1ncnc(N)c1n2-c1ccc(Oc2cccc(OCc3cccc(N)c3)c2)cc1 (stereo not shown) [Compound 116],100 to 1000
< 100,,Cc1nc(-c2cccc(Oc3ccc(-n4c5c(c6ncnc(N)c64)CCC5)cc3)c2)cs1 [Compound 117],100 to 1000
< 100,,COc1cccc(C(=O)Nc2cccc(Oc3ccc(-n4c5c(c6ncnc(N)c64)C(C)OC5)cc3)c2)c1 (stereo not shown) [Compound 118],100 to 1000
< 100,,CC1OCc2c1c1ncnc(N)c1n2-c1ccc(Oc2cccc(NC(=O)c3cccc(Cl)c3)c2)cc1 (stereo not shown) [Compound 119],100 to 1000
< 100,,CC1OCc2c1c1ncnc(N)c1n2-c1ccc(Oc2cccc(NC(=O)c3ccc(Cl)cc3)c2)cc1 (stereo not shown) [Compound 120],100 to 1000
< 100,,CC1OCc2c1c1ncnc(N)c1n2-c1ccc(Oc2cccc(NC(=O)c3cccc(F)c3)c2)cc1 (stereo not shown) [Compound 121],100 to 1000
< 100,,N#Cc1ccccc1COc1cccc(Oc2ccc(-n3c4c(c5ncnc(N)c53)CCC4)cc2)c1 [Compound 122],100 to 1000
< 100,,COc1cccc(COc2cccc(Oc3ccc(-n4c5c(c6ncnc(N)c64)CCC5)cc3)c2)c1 [Compound 123],100 to 1000
< 100,,CC1OCc2c1c1ncnc(N)c1n2-c1ccc(Oc2cccc(OCCC3CCCCC3)c2)cc1 (stereo not shown) [Compound 124],100 to 1000
< 100,,CC1OCc2c1c1ncnc(N)c1n2-c1ccc(Oc2cccc(NC(=O)c3ccccc3F)c2)cc1 (stereo not shown) [Compound 125],100 to 1000
< 100,,COc1ccccc1C(=O)Nc1cccc(Oc2ccc(-n3c4c(c5ncnc(N)c53)C(C)OC4)cc2)c1 (stereo not shown) [Compound 127],100 to 1000
< 100,,Nc1ncnc2c3c(n(-c4ccc(Oc5cccc(OCc6ccc(Cl)cc6)c5)cc4)c12)CCC3 [Compound 128],100 to 1000
< 100,,COc1ccc(COc2cccc(Oc3ccc(-n4c5c(c6ncnc(N)c64)CCC5)cc3)c2)cc1 [Compound 129],100 to 1000
< 100,,CC(=O)Nc1cccc(COc2cccc(Oc3ccc(-n4c5c(c6ncnc(N)c64)CCC5)cc3)c2)c1 [Compound 130],100 to 1000
< 100,,COc1ccc(OCc2cccc(Oc3ccc(-n4c5c(c6ncnc(N)c64)C(C)OC5)cc3)c2)cc1 (stereo not shown) [Compound 131],100 to 1000
< 100,,COCC(=O)Nc1cccc(COc2cccc(Oc3ccc(-n4c5c(c6ncnc(N)c64)C(C)OC5)cc3)c2)c1 (stereo not shown) [Compound 132],100 to 1000
< 100,,CC1OCc2c1c1ncnc(N)c1n2-c1ccc(Oc2cccc(OCc3cccc(NC(=O)C4CC4)c3)c2)cc1 (stereo not shown) [Compound 133],< 100
< 100,,CC1OCc2c1c1ncnc(N)c1n2-c1ccc(Oc2cccc(COc3ccccc3C#N)c2)cc1 (stereo not shown) [Compound 134],< 100
< 100,,CC(C)COc1cccc(Oc2ccc(-n3c4c(c5ncnc(N)c53)C(C)OC4)cc2)c1 (stereo not shown) [Compound 135],100 to 1000
